Measured values published in ChEMBL document CHEMBL1155096, “A regiospecific synthesis of a series of 1-sulfonyl azepinoindoles as potent 5-HT6 ligands” (Bioorg Med Chem Lett, 2008).
Active and inactive are the calls of the source. The rule behind the calls is not given here.

Columns and labels:
[1] = biological target: T1, 5-hydroxytryptamine receptor 6 (Homo sapiens, UniProt P50406); assay: Displacement of [3H]-LSD from cloned human 5HT6 receptor expressed in HeLa cells; format: cell-based
[2] = biological target: T1, 5-hydroxytryptamine receptor 6; assay: Antagonist activity at cloned human 5HT6 receptor expressed in HeLa cells assessed as production of cAMP; format: functional, cell-based
[3] = biological target: T2, 5-hydroxytryptamine receptor 2C (Homo sapiens, UniProt P28335); assay: Inhibition of 5HT2C
T2 sequence (P28335 whole entry): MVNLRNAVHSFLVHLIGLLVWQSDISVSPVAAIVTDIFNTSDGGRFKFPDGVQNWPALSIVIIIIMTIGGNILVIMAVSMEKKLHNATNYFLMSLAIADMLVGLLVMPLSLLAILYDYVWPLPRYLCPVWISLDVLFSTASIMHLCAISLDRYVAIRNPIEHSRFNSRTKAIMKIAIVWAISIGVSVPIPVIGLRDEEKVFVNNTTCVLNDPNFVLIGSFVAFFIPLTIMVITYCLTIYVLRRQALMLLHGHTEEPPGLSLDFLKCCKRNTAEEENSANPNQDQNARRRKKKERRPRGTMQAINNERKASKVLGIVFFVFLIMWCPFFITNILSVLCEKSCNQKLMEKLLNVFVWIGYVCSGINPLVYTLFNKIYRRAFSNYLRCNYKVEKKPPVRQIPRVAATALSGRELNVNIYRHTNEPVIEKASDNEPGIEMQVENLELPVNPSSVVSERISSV

T1 sequence (P50406 whole entry): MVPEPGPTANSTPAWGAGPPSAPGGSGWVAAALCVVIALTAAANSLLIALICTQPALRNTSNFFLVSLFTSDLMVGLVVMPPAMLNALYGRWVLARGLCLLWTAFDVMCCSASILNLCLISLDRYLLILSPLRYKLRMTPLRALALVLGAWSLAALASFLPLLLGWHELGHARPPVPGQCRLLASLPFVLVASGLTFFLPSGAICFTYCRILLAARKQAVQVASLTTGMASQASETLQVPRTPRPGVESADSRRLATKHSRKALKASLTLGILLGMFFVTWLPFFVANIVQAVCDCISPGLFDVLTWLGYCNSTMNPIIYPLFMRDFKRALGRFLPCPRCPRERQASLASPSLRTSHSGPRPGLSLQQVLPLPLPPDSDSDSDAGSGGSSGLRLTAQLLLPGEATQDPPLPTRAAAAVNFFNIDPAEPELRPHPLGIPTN

SMILES | Ki [1] | Activity [2] | Ki [3] | IC50 [2]
O=S(=O)(c1ccc(C(F)(F)F)cc1)n1c2c(c3ccccc31)CCNCC2 | 46 nM | Active |  | 
COc1cccc(S(=O)(=O)n2c3c(c4ccccc42)CCN(CCc2ccccc2)CC3)c1 | 504 nM | Active |  | 
O=S(=O)(c1ccc(F)cc1)n1c2c(c3ccccc31)CCNCC2 | 23 nM | Active |  | 
COc1cccc(S(=O)(=O)n2c3c(c4ccccc42)CCN(C)CC3)c1 | 19 nM | Active |  | 
COc1cccc(S(=O)(=O)n2c3c(c4ccccc42)CCN(Cc2ccccc2)CC3)c1 | 319 nM | Active |  | 
Cc1ccc(S(=O)(=O)n2c3c(c4ccccc42)CCNCC3)cc1 | 29 nM | Active |  | 
COc1cccc(S(=O)(=O)n2c3c(c4ccccc42)CCN(C2CCCCC2)CC3)c1 | 253 nM | Active |  | 
COc1ccc(S(=O)(=O)n2c3c(c4ccccc42)CCNCC3)cc1 | 33 nM | Active |  | 
Cc1cccc(S(=O)(=O)n2c3c(c4ccccc42)CCNCC3)c1 | 68 nM | Active |  | 
COc1cccc(S(=O)(=O)n2c3c(c4ccccc42)CCN(C2CCCC2)CC3)c1 | 324 nM | Active |  | 
CCN1CCc2c(n(S(=O)(=O)c3cccc(OC)c3)c3ccccc23)CC1 | 50 nM | Active |  | 
COc1cccc(S(=O)(=O)n2c3c(c4ccccc42)CCN(C(C)C)CC3)c1 | 85 nM | Active |  | 
CCN1CCc2c(n(S(=O)(=O)c3ccccc3)c3ccccc23)CC1 | 12 nM | Active |  | 
CCCN1CCc2c(n(S(=O)(=O)c3cccc(OC)c3)c3ccccc23)CC1 | 124 nM | Active |  | 
COc1ccccc1S(=O)(=O)n1c2c(c3ccccc31)CCNCC2 | 19 nM |  | 14 nM | 162 nM
O=S(=O)(c1cccc(Cl)c1)n1c2c(c3ccccc31)CCNCC2 | 41 nM | Active |  | 

Now from value to molecule:

Ki [1] | Activity [2] | Ki [3] | IC50 [2] | SMILES
193 nM | Active |  |  | O=S(=O)(c1ccccc1)n1c2c(c3ccccc31)CCNCC2
19 nM | Active |  |  | O=S(=O)(c1ccccc1Cl)n1c2c(c3ccccc31)CCNCC2
89 nM | Active |  |  | O=S(=O)(c1cccc(C(F)(F)F)c1)n1c2c(c3ccccc31)CCNCC2
24 nM | Active |  |  | O=S(=O)(c1ccc2c(Cl)cccc2c1)n1c2c(c3ccccc31)CCNCC2
33 nM | Active |  |  | O=S(=O)(c1cccc(F)c1)n1c2c(c3ccccc31)CCNCC2
12 nM | Active |  |  | COc1cccc(S(=O)(=O)n2c3c(c4ccccc42)CCNCC3)c1
18 nM | Active |  |  | O=S(=O)(c1ccc(Cl)cc1)n1c2c(c3ccccc31)CCNCC2
